Results on one molecule are retold here after publication PMC5142622, “Attenuation of the Type IV Pilus Retraction Motor Influences Neisseria gonorrhoeae Social and Infection Behavior” (mBio, 2016).

This experiment deals with PilT (Neisseria gonorrhoeae, UniProt Q53432). Particulars: MgCl2 5 mM, Tris 150 mM pH 8.5, NaCl 150 mM, 37 °C; variable ATP, 10 min.
PilT, sequence (Q53432 entry or part of it): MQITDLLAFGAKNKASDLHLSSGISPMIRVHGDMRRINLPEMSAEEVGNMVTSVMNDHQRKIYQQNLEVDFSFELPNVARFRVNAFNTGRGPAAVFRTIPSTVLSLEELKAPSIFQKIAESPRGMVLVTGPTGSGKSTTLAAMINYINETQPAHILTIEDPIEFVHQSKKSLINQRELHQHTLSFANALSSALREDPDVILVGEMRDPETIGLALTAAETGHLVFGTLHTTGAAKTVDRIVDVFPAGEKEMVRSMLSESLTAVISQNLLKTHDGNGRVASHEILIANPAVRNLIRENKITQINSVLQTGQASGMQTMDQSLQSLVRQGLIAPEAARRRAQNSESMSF

For `Nc1ncnc2c1ncn2[C@@H]1O[C@H](COP(=O)(O)OP(=O)(O)OP(=O)(O)O)[C@@H](O)[C@H]1O` [ATP], the Km is 0.38 nmol.
